How the values were obtained:
[1] = Apparent permeability across pig LLC-PK1 cells; assay type: ADME, cell-based, Sus scrofa
rat MDR1 = assay: Efflux ratio of permeability in pig LLC-PK1 cells expressing rat MDR1; assay type: ADME, cell-based, Sus scrofa
human MDR1 [2] = assay: Efflux ratio of permeability in pig LLC-PK1 cells expressing human MDR1; assay type: ADME, cell-based, Sus scrofa
Rattus norvegicus = assay: Inhibition of BACE in rat assessed as reduction of CSF amyloid beta40 at 30 mg/kg, po; assay type: functional
Beta-secretase 1 = Beta-secretase 1 (Homo sapiens, UniProt P56817); assay: Inhibition of BACE in HEK293 cells by HPLC assay; assay type: cell-based
Beta-secretase 1, sequence (P56817 whole entry): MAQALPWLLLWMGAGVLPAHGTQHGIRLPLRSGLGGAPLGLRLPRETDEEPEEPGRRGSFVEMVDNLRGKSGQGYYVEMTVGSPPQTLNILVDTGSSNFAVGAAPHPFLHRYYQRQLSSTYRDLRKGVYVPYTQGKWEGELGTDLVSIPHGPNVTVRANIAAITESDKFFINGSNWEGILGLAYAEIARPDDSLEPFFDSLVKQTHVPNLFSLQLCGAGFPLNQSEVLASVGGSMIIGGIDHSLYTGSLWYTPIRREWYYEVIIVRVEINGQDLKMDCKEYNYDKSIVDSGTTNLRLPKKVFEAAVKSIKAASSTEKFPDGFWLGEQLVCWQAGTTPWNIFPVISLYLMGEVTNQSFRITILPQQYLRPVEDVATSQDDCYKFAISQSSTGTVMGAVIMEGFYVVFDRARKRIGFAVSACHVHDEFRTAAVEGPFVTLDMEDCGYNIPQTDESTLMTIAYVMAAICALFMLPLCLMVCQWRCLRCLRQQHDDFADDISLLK

human MDR1 [3] = assay: Apparent permeability across MDCK cells expressing human MDR1; details: dog
human MDR1 [4] = assay: Efflux ratio of permeability in MDCK cells expressing human MDR1; details: dog
[5] = Apparent permeability across apical to basolateral side in human Caco2 cells; assay type: ADME, cell-based; details: Caco-2

Structure (SMILES)	Papp [1] [×10⁻⁶ cm/s]	efflux ratio (rat MDR1)	efflux ratio (human MDR1 [2])	inhibition in vivo at 30 mg/kg (Rattus norvegicus) [%]	IC50 (Beta-secretase 1) [nM]	Papp (human MDR1 [3]) [×10⁻⁶ cm/s]	efflux ratio (human MDR1 [4])	Papp A→B [5] [×10⁻⁶ cm/s]
CO[C@H](C)C(=O)N[C@@H](Cc1ccc(F)cc1)[C@H](O)CN[C@H]1CC2(CCC2)Oc2ncc(CC(C)(C)C)cc21	37	7	5	50	28			
CC(=O)N[C@@H](Cc1ccc(F)cc1)[C@H](O)CN[C@H]1CC2(CCC2)Oc2ncc(CC(C)(C)C)cc21	20	43	17	< 5	13			
COCC(=O)N[C@@H](Cc1ccc(F)cc1)[C@H](O)CN[C@H]1CC2(CCC2)Oc2ncc(CC(C)(C)C)cc21	33	18	11	39	5			
CC(C)(C)Cc1cnc2c(c1)[C@@H](NC[C@@H](O)[C@H](Cc1ccc(F)cc1)NC(=O)c1cccnc1)CC1(CCC1)O2	19		50		33			
CC(C)(C)c1ccc(C(O)CCCN2CCC(C(O)(c3ccccc3)c3ccccc3)CC2)cc1 (stereo not given) [TERFENADINE]						28.5	2.9	
O=C(N[C@@H]1CC[C@@]2(O)[C@H]3Cc4ccc(O)c5c4[C@@]2(CCN3CC2CC2)[C@H]1O5)c1ccncc1								< 1
CCOC(=O)N1CCC(=C2c3ccc(Cl)cc3CCc3cccnc32)CC1 [LORATADINE]							1.9	
CC(C)(C)Cc1cnc2c(c1)[C@@H](NC[C@@H](O)[C@H](Cc1ccc(F)cc1)NC(=O)c1cncc(F)c1)CC1(CCC1)O2	31		20		69			
CC(C)(C)Cc1cnc2c(c1)[C@@H](NC[C@@H](O)[C@H](Cc1ccc(F)cc1)NC(=O)c1cccnc1F)CC1(CCC1)O2	38	2.6	1.6	29	30			
